Kd data for 3 compounds are collected here from patent US6620963B1, “TRICYCLO[6.2.202,7]DODECA-2(7),3,5-TRIEN-4-CARBONYLAMINO-PHENYL AND TRICYCLO[6.2.202,7]DODECA-2(7),3,5-TRIEN-4-CARBONYLAMINO-HETEROARYL AND RELATED COMPOUNDS HAVING RARα RECEPTOR SELECTIVE BIOLOGICAL ACTIVITY” (Allergan, Inc., priority 2002, dated 2003).

One assay has as its target T1, RARβ (Homo sapiens, UniProt P10826).
T1 sequence (P10826 1-455): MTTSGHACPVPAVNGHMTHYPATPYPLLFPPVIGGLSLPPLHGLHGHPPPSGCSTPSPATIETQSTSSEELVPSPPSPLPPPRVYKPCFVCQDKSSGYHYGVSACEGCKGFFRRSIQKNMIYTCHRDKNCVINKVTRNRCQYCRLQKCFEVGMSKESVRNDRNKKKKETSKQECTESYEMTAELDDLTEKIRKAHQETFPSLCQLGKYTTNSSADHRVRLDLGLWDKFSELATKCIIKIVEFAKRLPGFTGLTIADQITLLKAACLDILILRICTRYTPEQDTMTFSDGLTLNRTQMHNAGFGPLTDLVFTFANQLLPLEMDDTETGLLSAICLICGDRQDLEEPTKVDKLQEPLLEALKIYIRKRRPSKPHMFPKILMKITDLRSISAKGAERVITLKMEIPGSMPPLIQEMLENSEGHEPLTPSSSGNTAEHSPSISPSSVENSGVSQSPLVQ
Kind of assay: ligand binding assay, RARβ. As to conditions: RARβ receptor subtype; read-out: RAR Kd (nM) β. From the text: (§1) A holoreceptor transactivation assay and a ligand binding assay which measure the antagonist/agonist like activity of the compounds of the invention, or their ability to bind to the several retinoid receptor subtypes, respectively, are described in published PCT Application No. WO WO93/11755 (particularly on pages 30-33 and 37-41) published on Jun. 24, 1993, the specification of which is also incorporated herein by reference. A detailed experimental procedure for holoreceptor transactivations has been described by Heyman et al. Cell 68, 397-406, (1992); Allegretto et al. J. Biol. Chem. 268, 26625-26633, and Mangelsdorf et al. The Retinoids: Biology, Chemistry and Medicine, pp 319-349, Raven Press Ltd., New York, which are expressly incorporated herein by reference. The results obtained in this assay are expressed in EC50 numbers, as they are also in the chimeric receptor transactivation assay. The results of ligand binding assay are expressed in Kd numbers. (See Cheng et al. Biochemical Pharmacology Vol. 22 pp 3099-3108, expressly incorporated herein by reference.)

A further assay addresses T2, RARα (Homo sapiens, UniProt P10276).
T2 sequence (P10276 1-462): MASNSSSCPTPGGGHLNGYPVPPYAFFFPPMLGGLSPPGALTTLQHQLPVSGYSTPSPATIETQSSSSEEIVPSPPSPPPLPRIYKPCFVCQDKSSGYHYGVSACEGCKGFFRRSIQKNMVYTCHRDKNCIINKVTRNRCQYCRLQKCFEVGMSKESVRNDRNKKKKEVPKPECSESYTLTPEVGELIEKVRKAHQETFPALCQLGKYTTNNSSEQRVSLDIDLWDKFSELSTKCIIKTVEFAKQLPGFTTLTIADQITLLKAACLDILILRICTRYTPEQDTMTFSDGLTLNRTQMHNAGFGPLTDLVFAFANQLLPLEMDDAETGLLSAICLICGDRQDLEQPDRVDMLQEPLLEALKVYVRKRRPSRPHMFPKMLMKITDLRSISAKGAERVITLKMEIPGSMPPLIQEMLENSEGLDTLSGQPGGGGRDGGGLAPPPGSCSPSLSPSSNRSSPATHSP
The assay is described as follows: ligand binding assay, RARα. As to conditions: RARα receptor subtype; read-out: RAR Kd (nM) α.
Description: as §1

Another assay concerns the target T3, RARγ (Homo sapiens, UniProt P13631).
T3 sequence (P13631 1-454): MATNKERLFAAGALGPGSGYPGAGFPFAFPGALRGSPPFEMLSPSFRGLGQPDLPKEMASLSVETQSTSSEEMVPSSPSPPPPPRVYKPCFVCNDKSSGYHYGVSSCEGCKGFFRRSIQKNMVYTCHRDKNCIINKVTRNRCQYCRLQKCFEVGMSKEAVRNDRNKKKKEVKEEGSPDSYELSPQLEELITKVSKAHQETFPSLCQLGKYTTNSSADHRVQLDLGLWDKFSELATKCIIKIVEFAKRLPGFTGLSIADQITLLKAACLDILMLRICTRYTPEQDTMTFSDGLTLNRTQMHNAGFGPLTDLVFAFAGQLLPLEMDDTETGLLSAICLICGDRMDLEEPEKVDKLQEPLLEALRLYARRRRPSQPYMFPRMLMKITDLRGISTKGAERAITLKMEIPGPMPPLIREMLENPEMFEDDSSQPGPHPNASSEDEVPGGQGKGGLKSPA
Kind of assay: ligand binding assay, RARγ. As to conditions: RARγ receptor subtype; read-out: RAR Kd (nM) γ.
Description: as §1

Structures are written as SMILES.

One may read the Kd as the concentration at which binding is half-saturated. As for `CC12CCC(C)(CC1)c1c2cc(C(=O)Nc2cc(F)c(C(=O)O)c(F)c2)c(O)c1Br` [Compound 14, 4-[(6-Bromo-5-hydroxy-1,8-dimethyl-tricyclo[6.2.20^2,7]dodeca-2(7),3,5-trien-4-carbonyl)amino]-2,6-difluorobenzoic Acid], the Kd at RARβ was more than 10000 nM; on RARα it was 84 nM; on RARγ, more than 10000 nM.

`CC12CCC(C)(CC1)c1cc(C(=O)Nc3ccc(C(=O)O)c(F)c3)c(O)cc12` [Compound 8, 2-Fluoro-4-[(5-hydroxy-1,8-dimethyl-tricyclo[6.2.20^2,7]dodeca-2(7),3,5-trien-4-carbonyl)amino]benzoic Acid]: the results for the Kd at RARβ, at RARα and on RARγ were 7200 nM, 53 nM and more than 10000 nM, respectively.

As to `CC12CCC(C)(CC1)c1c2cc(C(=O)Nc2ccc(C(=O)O)c(F)c2)c(O)c1Br` [Compound 10, 4-[(6-Bromo-5-hydroxy-1,8-dimethyl-tricyclo[6.2.20^2,7]dodeca-2(7),3,5-trien-4-carbonyl)amino]-2-fluorobenzoic Acid], the Kd is more than 10000 nM at RARβ, 32 nM on RARα and more than 10000 nM at RARγ.
